How the values were obtained:
ROCK1 = ROCK1 (Homo sapiens (Human), UniProt Q13464); test: ROCK assay (LABCHIP peptide phosphorylation), ROCK1; assay type: biochemical; details: 5 μM ATP, 1.5 μM peptide substrate; read-out: ROCK1 IC50
ROCK2 = ROCK2 (Homo sapiens (Human), UniProt O75116); test: ROCK assay (LABCHIP peptide phosphorylation), ROCK2; assay type: biochemical; details: 5 μM ATP, 1.5 μM peptide substrate
Sequence of ROCK2 (O75116 whole entry, species assumed): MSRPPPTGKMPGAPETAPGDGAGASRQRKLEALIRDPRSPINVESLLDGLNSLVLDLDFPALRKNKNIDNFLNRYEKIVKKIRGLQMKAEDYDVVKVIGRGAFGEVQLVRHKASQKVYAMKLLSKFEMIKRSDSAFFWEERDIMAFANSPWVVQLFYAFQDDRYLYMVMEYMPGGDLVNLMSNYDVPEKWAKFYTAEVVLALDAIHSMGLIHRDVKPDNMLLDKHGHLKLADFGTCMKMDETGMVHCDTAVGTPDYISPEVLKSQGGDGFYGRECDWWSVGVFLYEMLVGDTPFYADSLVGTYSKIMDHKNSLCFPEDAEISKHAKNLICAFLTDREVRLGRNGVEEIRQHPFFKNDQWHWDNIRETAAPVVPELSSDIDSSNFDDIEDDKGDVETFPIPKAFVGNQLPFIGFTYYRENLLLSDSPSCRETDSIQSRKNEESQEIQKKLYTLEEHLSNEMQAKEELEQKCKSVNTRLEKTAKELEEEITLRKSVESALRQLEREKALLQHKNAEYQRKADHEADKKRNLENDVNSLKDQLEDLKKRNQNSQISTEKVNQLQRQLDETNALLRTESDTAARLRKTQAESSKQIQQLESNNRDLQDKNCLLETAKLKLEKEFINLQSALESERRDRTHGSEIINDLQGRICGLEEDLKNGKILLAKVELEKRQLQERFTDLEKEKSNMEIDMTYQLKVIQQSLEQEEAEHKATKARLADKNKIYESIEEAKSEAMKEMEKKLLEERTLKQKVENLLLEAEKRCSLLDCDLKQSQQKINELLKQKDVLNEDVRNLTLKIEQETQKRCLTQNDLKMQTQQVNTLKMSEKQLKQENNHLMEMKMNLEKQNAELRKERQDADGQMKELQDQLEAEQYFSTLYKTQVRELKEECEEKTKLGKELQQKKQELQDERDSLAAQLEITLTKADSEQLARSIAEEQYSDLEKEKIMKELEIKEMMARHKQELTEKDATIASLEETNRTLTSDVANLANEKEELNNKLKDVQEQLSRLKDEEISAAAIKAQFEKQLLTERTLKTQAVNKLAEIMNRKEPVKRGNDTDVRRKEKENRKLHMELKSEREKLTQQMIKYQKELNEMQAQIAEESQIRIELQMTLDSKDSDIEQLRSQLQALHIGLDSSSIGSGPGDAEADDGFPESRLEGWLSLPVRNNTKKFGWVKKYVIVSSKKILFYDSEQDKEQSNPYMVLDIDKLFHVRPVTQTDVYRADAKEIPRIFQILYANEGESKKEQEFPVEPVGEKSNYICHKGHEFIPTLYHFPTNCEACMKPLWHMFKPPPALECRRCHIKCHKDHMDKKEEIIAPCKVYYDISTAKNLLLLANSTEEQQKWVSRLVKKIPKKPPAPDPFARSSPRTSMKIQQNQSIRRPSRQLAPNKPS

Sequence of ROCK1 (Q13464 whole entry, species assumed): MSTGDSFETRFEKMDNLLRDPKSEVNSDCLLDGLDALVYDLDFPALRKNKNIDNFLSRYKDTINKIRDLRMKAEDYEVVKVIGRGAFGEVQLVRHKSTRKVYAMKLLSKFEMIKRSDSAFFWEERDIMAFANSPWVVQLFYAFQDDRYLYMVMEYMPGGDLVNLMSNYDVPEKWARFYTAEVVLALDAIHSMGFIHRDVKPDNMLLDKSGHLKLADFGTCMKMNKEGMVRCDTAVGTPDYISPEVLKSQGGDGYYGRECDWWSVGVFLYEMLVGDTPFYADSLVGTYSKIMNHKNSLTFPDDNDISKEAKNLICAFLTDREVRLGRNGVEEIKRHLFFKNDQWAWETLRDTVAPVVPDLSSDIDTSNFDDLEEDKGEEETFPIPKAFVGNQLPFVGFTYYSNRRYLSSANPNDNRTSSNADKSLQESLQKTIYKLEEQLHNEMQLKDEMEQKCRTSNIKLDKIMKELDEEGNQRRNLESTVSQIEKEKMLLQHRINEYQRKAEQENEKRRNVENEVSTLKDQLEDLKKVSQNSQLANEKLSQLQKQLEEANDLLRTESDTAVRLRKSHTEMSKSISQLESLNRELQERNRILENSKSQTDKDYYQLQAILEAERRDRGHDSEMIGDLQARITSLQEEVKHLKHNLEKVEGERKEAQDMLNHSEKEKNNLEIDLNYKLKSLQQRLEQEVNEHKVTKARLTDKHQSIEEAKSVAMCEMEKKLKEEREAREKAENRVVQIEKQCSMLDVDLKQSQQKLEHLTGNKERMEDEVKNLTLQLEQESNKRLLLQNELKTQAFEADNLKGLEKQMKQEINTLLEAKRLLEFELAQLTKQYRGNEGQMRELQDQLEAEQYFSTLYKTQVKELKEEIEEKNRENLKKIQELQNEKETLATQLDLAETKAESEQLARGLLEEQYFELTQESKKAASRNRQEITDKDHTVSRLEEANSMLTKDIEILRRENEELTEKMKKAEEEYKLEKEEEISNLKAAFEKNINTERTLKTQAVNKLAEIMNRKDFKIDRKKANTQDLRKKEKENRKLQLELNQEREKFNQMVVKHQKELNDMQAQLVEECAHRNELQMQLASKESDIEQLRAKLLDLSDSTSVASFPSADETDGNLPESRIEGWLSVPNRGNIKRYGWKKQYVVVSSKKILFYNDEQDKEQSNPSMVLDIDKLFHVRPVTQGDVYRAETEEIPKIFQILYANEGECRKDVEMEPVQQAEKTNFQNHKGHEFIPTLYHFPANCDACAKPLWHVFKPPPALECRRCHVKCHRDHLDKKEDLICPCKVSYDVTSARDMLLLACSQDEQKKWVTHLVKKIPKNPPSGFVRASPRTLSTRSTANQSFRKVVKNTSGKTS

IC50 (ROCK1) [nM]	IC50 (ROCK2) [nM]	Structure (SMILES)
1000 to 50000	101 to 1000	O=C(Cc1ccc(-c2n[nH]c(=O)c3ccccc23)cc1)Nc1ccccc1 [Example 20, 2-[4-(4-oxo-3,4-dihydrophthalazin-1-yl)phenyl]-N-phenylacetamide]
101 to 1000	0.1 to 100	O=C(Cc1ccc(-c2n[nH]c(=O)c3ccccc23)cc1)Nc1ccc2ncsc2c1 [Example 21]
1000 to 50000	1000 to 50000	CN(C(=O)Cc1ccc(-c2n[nH]c(=O)c3ccccc23)cc1)c1ccccc1 [Example 22, N-methyl-2-[4-(4-oxo-3,4-dihydrophthalazin-1-yl)phenyl]-N-phenylacetamide]
101 to 1000	0.1 to 100	O=C(Cc1ccc(-c2n[nH]c(=O)c3ccccc23)cc1)N1CCc2ccccc21 [Example 23, 4-{4-[2-(2,3-dihydro-1H-indol-1-yl)-2-oxoethyl]phenyl}-1,2-dihydrophthalazin-1-one]
101 to 1000	0.1 to 100	O=C(Cc1ccc(-c2n[nH]c(=O)c3ccccc23)cc1)Nc1ccc2c(c1)OCCO2 [Example 24, N-(2,3-dihydro-1,4-benzodioxin-6-yl)-2-[4-(4-oxo-3,4-dihydrophthalazin-1-yl)phenyl]acetamide]
1000 to 50000	0.1 to 100	Cc1cc(NC(=O)Cc2ccc(-c3n[nH]c(=O)c4ccccc34)cc2)on1 [Example 26, N-(3-methyl-1,2-oxazol-5-yl)-2-[4-(4-oxo-3,4-dihydrophthalazin-1-yl)phenyl]acetamide]
1000 to 50000	0.1 to 100	Cc1cc(NC(=O)Cc2ccc(-c3n[nH]c(=O)c4ccccc34)cc2)no1 [Example 27, N-(5-methyl-1,2-oxazol-3-yl)-2-[4-(4-oxo-3,4-dihydrophthalazin-1-yl)phenyl]acetamide]
1000 to 50000	101 to 1000	O=C(Cc1ccc(-c2n[nH]c(=O)c3ccccc23)cc1)Nc1nccs1 [Example 28, 2-[4-(4-oxo-3,4-dihydrophthalazin-1-yl)phenyl]-N-(1,3-thiazol-2-yl)acetamide]
1000 to 50000	0.1 to 100	O=C(Cc1ccc(-c2n[nH]c(=O)c3ccccc23)cc1)Nc1nncs1 [Example 29, 2-[4-(4-oxo-3,4-dihydrophthalazin-1-yl)phenyl]-N-(1,3,4-thiadiazol-2-yl)acetamide]
1000 to 50000	0.1 to 100	Cc1nnc(NC(=O)Cc2ccc(-c3n[nH]c(=O)c4ccccc34)cc2)s1 [Example 31, N-(5-methyl-1,3,4-thiadiazol-2-yl)-2-[4-(4-oxo-3,4-dihydrophthalazin-1-yl)phenyl]acetamide]
0.1 to 100	0.1 to 100	CCOc1ccc2c(c1)N(C(=O)Cc1ccc(-c3n[nH]c(=O)c4ccccc34)cc1)CC2 [Example 33, 4-{4-[2-(6-ethoxy-2,3-dihydro-1H-indol-1-yl)-2-oxoethyl]phenyl}-1,2-dihydrophthalazin-1-one]
1000 to 50000	101 to 1000	O=C(Cc1ccc(-c2n[nH]c(=O)c3ccccc23)cc1)N1CCCc2ccccc21 [Example 34, 4-{4-[2-oxo-2-(1,2,3,4-tetrahydroquinolin-1-yl)ethyl]phenyl}-1,2-dihydrophthalazin-1-one]
101 to 1000	0.1 to 100	O=C(Cc1ccc(-c2n[nH]c(=O)c3ccccc23)cc1)N1CCc2ccc(C(F)(F)F)cc21 [Example 35, 4-(4-{2-oxo-2-[6-(trifluoromethyl)-2,3-dihydro-1H-indol-1-yl]ethyl}phenyl)-1,2-dihydrophthalazin-1-one]
101 to 1000	0.1 to 100	O=C(Cc1ccc(-c2c[nH]c(=O)c3ccccc23)cc1)N1Cc2ccccc2C1 [Example 38, 4-(4-(2-(Isoindolin-2-yl)-2-oxoethyl)phenyl)isoquinolin-1(2H)-one]
101 to 1000	0.1 to 100	CC1(C)CN(C(=O)Cc2ccc(-c3n[nH]c(=O)c4ccccc34)cc2)c2ccccc21 [Example 39, 4-{4-[2-(3,3-dimethyl-2,3-dihydro-1H-indol-1-yl)-2-oxoethyl]phenyl}-1,2-dihydrophthalazin-1-one]
101 to 1000	0.1 to 100	CC1Cc2ccccc2N1C(=O)Cc1ccc(-c2n[nH]c(=O)c3ccccc23)cc1 (stereo not shown) [Example 40, 4-{4-[2-(2-methyl-2,3-dihydro-1H-indol-1-yl)-2-oxoethyl]phenyl}-1,2-dihydrophthalazin-1-one]
0.1 to 100	0.1 to 100	COc1ccc2c(c1)N(C(=O)Cc1ccc(-c3n[nH]c(=O)c4ccccc34)cc1)CC2 [Example 41, 4-{4-[2-(6-methoxy-2,3-dihydro-1H-indol-1-yl)-2-oxoethyl]phenyl}-1,2-dihydrophthalazin-1-one]

IC50 (ROCK1) [nM]	IC50 (ROCK2) [nM]	Structure (SMILES)
1000 to 50000	0.1 to 100	O=C(Nc1ccc(-c2n[nH]c(=O)c3ccccc23)cc1)c1csc(-c2ccccc2)n1 [Example 46, N-[4-(4-oxo-3,4-dihydrophthalazin-1-yl)phenyl]-2-phenyl-1,3-thiazole-4-carboxamide]
101 to 1000	0.1 to 100	O=C(Nc1ccc(-c2n[nH]c(=O)c3ccccc23)cc1)c1ncc(-c2ccncc2)s1 [Example 47, N-[4-(4-oxo-3,4-dihydrophthalazin-1-yl)phenyl]-5-(pyridin-4-yl)-1,3-thiazole-2-carboxamide]
101 to 1000	0.1 to 100	O=C(Nc1ccc(-c2n[nH]c(=O)c3ccccc23)cc1)c1csc(-c2ccc(C(F)(F)F)cc2)n1 [Example 48, N-[4-(4-oxo-3,4-dihydrophthalazin-1-yl)phenyl]-2-[4-(trifluoromethyl)phenyl]-1,3-thiazole-4-carboxamide]
0.1 to 100	0.1 to 100	Cc1csc(C(=O)Nc2ccc(-c3n[nH]c(=O)c4ccccc34)cc2)n1 [Example 50, 4-methyl-N-[4-(4-oxo-3,4-dihydrophthalazin-1-yl)phenyl]-1,3-thiazole-2-carboxamide]
1000 to 50000	0.1 to 100	CN1CCc2nc(C(=O)Nc3ccc(-c4n[nH]c(=O)c5ccccc45)cc3)sc2C1 [Example 51, 5-methyl-N-[4-(4-oxo-3,4-dihydrophthalazin-1-yl)phenyl]-4H,5H,6H, 7H-[1,3]thiazolo[5,4-c] pyridine-2-carboxamide]
101 to 1000	101 to 1000	Cn1ccnc1C(=O)Nc1ccc(-c2n[nH]c(=O)c3ccccc23)cc1 [Example 52, 1-methyl-N-[4-(4-oxo-3,4-dihydrophthalazin-1-yl)phenyl]-1H-imidazole-2-carboxamide]
0.1 to 100	0.1 to 100	O=C(Nc1ccc(-c2n[nH]c(=O)c3ccccc23)cc1)c1nc2c(s1)CCCC2 [Example 53, N-[4-(4-oxo-3,4-dihydrophthalazin-1-yl)phenyl]-4,5,6,7-tetrahydro-1,3-benzothiazole-2-carboxamide]
101 to 1000	0.1 to 100	O=C(Nc1ccc(-c2n[nH]c(=O)c3ccccc23)cc1)C1CCN(c2ccc([N+](=O)[O-])cc2)CC1 [Example 54, 1-(4-nitrophenyl)-N-[4-(4-oxo-3,4-dihydrophthalazin-1-yl)phenyl]piperidine-4-carboxamide]
1000 to 50000	1000 to 50000	CC(=O)N1CCC(C(=O)Nc2ccc(-c3n[nH]c(=O)c4ccccc34)cc2)CC1 [Example 55, 1-acetyl-N-[4-(4-oxo-3,4-dihydrophthalazin-1-yl)phenyl]piperidine-4-carboxamide]
1000 to 50000	1000 to 50000	O=C(Nc1ccc(-c2n[nH]c(=O)c3ccccc23)cc1)C1CCN(Cc2ccccc2)CC1 [Example 56, 1-benzyl-N-[4-(4-oxo-3,4-dihydrophthalazin-1-yl)phenyl]piperidine-4-carboxamide]
1000 to 50000	1000 to 50000	COCCN1CCC(C(=O)Nc2ccc(-c3n[nH]c(=O)c4ccccc34)cc2)C1 (stereo not shown) [Example 57, 1-(2-methoxyethyl)-N-[4-(4-oxo-3,4-dihydrophthalazin-1-yl)phenyl]pyrrolidine-3-carboxamide]
0.1 to 100	0.1 to 100	CN(C)c1ccc(C(=O)Nc2ccc(-c3n[nH]c(=O)c4ccccc34)cc2)cc1 [Example 58, 4-(dimethylamino)-N-[4-(4-oxo-3,4-dihydrophthalazin-1-yl)phenyl]benzamide]
1000 to 50000	1000 to 50000	O=C(Nc1ccc(-c2n[nH]c(=O)c3ccccc23)cc1)C1CCN(Cc2ccccc2)C1 (stereo not shown) [Example 59, 1-benzyl-N-[4-(4-oxo-3,4-dihydrophthalazin-1-yl)phenyl]pyrrolidine-3-carboxamide]
0.1 to 100	0.1 to 100	O=C(Nc1ccc(-c2n[nH]c(=O)c3ccccc23)cc1)c1ccc(N2CCCC2)cc1 [Example 60]
0.1 to 100	0.1 to 100	O=C(Nc1ccc(-c2n[nH]c(=O)c3ccccc23)cc1)c1ccc(N2CCCCC2)cc1 [Example 61]
0.1 to 100	0.1 to 100	O=C(Nc1ccc(-c2n[nH]c(=O)c3ccccc23)cc1)c1cccc(N2CCCC2)c1 [Example 62, N-[4-(4-oxo-3,4-dihydrophthalazin-1-yl)phenyl]-3-(pyrrolidin-1-yl)benzamide]

Structure (SMILES)	IC50 (ROCK1) [nM]	IC50 (ROCK2) [nM]
CN1CCN(Cc2ccc3c(c2)CN(C(=O)Cc2ccc(-c4n[nH]c(=O)c5ccccc45)cc2)C3)CC1 [Example 25]	101 to 1000	0.1 to 100
O=C(Cc1ccc(-c2n[nH]c(=O)c3ccccc23)c(F)c1)N1Cc2ccccc2C1 [Example 37, 4-(2-Fluoro-4-(2-(isoindolin-2-yl)-2-oxoethyl)phenyl)phthalazin-1(2H)-one]	101 to 1000	0.1 to 100
CC(C(=O)N1CCc2ccccc21)c1ccc(-c2n[nH]c(=O)c3ccccc23)cc1 (stereo not shown) [Example 42, 4-(4-(1-(Indolin-1-yl)-1-oxopropan-2-yl)phenyl)phthalazin-1(2H)-one]	1000 to 50000	0.1 to 100
CC(C(=O)N1Cc2ccccc2C1)c1ccc(-c2n[nH]c(=O)c3ccccc23)cc1 (stereo not shown) [Example 43, 4-(4-(1-(Isoindolin-2-yl)-1-oxopropan-2-yl)phenyl)phthalazin-1(2H)-one]	1000 to 50000	101 to 1000
O=C(Nc1ccc(-c2n[nH]c(=O)c3ccccc23)cc1)C1Cc2ccccc2C1 [Example 44, N-(4-(4-Oxo-3,4-dihydrophthalazin-1-yl)phenyl)-2,3-dihydro-1H-indene-2-carboxamide]	1000 to 50000	0.1 to 100

From patent US9926282B2, “Phthalazinones and isoquinolinones as rock inhibitors” (BRISTOL-MYERS SQUIBB COMPANY, priority 2013, dated 2018)
